Measurements as given in patent US20260184691A1, “INHIBITORS AND DEGRADERS OF PIP4K PROTEIN” (Larkspur Biosciences, Inc., priority 2022, published 2026).

Biological target: T1, Human PIP4K2C (Homo sapiens, UniProt Q8TBX8)
T1 construct: purchased Eurofins DiscoverX 87-0007-1094
T1 sequence (Q8TBX8 1-421): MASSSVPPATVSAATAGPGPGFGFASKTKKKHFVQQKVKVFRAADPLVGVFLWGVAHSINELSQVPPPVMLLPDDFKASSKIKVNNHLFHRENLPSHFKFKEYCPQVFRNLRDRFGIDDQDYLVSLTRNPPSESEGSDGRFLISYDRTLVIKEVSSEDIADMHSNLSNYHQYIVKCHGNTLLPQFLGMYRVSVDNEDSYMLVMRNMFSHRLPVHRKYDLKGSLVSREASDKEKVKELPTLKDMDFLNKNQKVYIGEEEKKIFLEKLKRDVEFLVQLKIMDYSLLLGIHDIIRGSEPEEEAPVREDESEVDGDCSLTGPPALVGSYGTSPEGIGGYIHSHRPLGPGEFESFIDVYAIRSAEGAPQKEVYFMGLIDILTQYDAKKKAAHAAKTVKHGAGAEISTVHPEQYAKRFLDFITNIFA
Assay: Enzyme binding assay (KINOMEscan), active site-directed competition binding
Details: 11-point dose response, duplicate, top concentration 5 micromolar; read-out: Pip4k2c Kd: IC50
Description: PIP4K2C binding constants disclosed herein were determined using the proprietary Human PIP4K2C binding assay (Catalog number 87-0007-1094, Eurofins DiscoverX, San Diego, CA). This assay measures active site-directed competition binding to an immobilized ligand (see https://doi.org/10.1038/nbt1068, herein incorporated by reference in its entirety). Experiments were conducted using an 11-point dose response curve, in duplicate, with a top starting concentration of 5 micromolar; the Levenberg-Marquardt algorithm was used to fit a Hill equation to dose-response data to calculate IC50 values (see Table 5).

SMILES	IC50 [nM]
O=C1CCCN1c1cncc(Nc2ncc(Cl)c(-c3cccc(-c4ccc(Cl)cc4)c3)n2)c1 [Compound 4, 1-(5-((5-chloro-4-(4′-chloro-[1,1′-biphenyl]-3-yl)pyrimidin-2-yl)amino)pyridin-3-yl)pyrrolidin-2-one]	< 500
Cc1cc(F)ccc1-c1nc(Nc2cncc(N3CCCC3=O)c2)ncc1Cl [Compound 113, 1-(5-((5-chloro-4-(4-fluoro-2methylphenyl)pyrimidin-2-yl)amino)pyridin-3-yl)pyrrolidin-2-one]	< 500
O=C1CCCN1c1cncc(Nc2cc(-c3ccc(F)cc3F)c(Cl)cn2)c1 [Compound 104, 1-(5-((5-chloro-4-(2,4-difluorophenyl)pyridin-2-yl)amino)pyridin-3-yl)pyrrolidin-2-one]	500 to 1000
O=C1CCCN1c1cncc(Nc2ncc(Cl)c(-c3ccccc3Cl)n2)c1 [Compound 95, 1-(5-((5-chloro-4-(2-chlorophenyl)pyrimidin-2-yl)amino)pyridin-3-yl)pyrrolidin-2-one]	< 500
O=C1CCCN1c1cncc(Nc2ncc(Cl)c(N3CCOC(c4ccccc4)C3)n2)c1 (stereo not drawn) [Compound 41, 1-[5-[[5-chloro-4-(2-phenylmorpholin-4-yl)pyrimidin-2-yl]amino]-3-pyridyl]pyrrolidin-2-one]	< 500
O=C1CCCN1c1cncc(Nc2ncc(Cl)c(N3Cc4ccccc4C3)n2)c1 [Compound 130, 1-(5-((5-chloro-4-(isoindolin-2-yl)pyrimidin-2-yl)amino)pyridin-3-yl)pyrrolidin-2-one]	< 500
O=C1CCCN1c1cncc(Nc2ncc(Cl)c(N3CCOCC3)n2)c1 [Compound 107, 1-(5-((5-chloro-4-morpholinopyrimidin-2-yl)amino)pyridin-3-yl)pyrrolidin-2-one]	< 500
CC1CN(c2nc(Nc3cncc(N4CCCC4=O)c3)ncc2Cl)CC(C)O1 (stereo not drawn) [Compound 114, 1-(5-((5-chloro-4-(2,6-dimethylmorpholino)pyrimidin-2-yl)amino)pyridin-3-yl)pyrrolidin-2-one]	< 500
Cc1ccc(-c2ccccc2)cc1-c1nc(Nc2cncc(N3CCCC3=O)c2)ncc1Cl [Compound 10, 1-(5-((5-chloro-4-(4-methyl-[1,1′-biphenyl]-3-yl)pyrimidin-2-yl)amino)pyridin-3-yl)pyrrolidin-2-one]	< 500
COc1ccc(-c2ccccc2)cc1-c1nc(Nc2cncc(N3CCCC3=O)c2)ncc1Cl [Compound 21, 1-(5-((5-chloro-4-(4-methoxy-[1,1′-biphenyl]-3-yl)pyrimidin-2-yl)amino)pyridin-3-yl)pyrrolidin-2-one]	< 500
O=C1CCCN1c1cncc(Nc2ncc(Cl)c(N3CCC(N4CCCCC4)C3)n2)c1 (stereo not drawn) [Compound 121, 1-(5-((5-chloro-4-(3-(piperidin-1-yl)pyrrolidin-1-yl)pyrimidin-2-yl)amino)pyridin-3-yl)pyrrolidin-2-one]	< 500
O=C1CCCN1c1cncc(Nc2ncc(Cl)c(-c3cc(Cl)cc(-c4ccccc4)c3)n2)c1 [Compound 22, 1-(5-((5-chloro-4-(5-chloro-[1,1′-biphenyl]-3-yl)pyrimidin-2-yl)amino)pyridin-3-yl)pyrrolidin-2-one]	< 500
O=C1CCCN1c1cncc(Nc2ncc(Cl)c(-c3cc(C4CC4)[nH]n3)n2)c1 [Compound 50, 1-(5-((5-chloro-4-(5-cyclopropyl-1H-pyrazol-3-yl)pyrimidin-2-yl)amino)pyridin-3-yl)pyrrolidin-2-one]	< 500
O=C1CCCN1c1cncc(Nc2ncc(F)c(-c3ccc(=O)n(C4COC4)c3)n2)c1 [Compound 155, 5-(5-fluoro-2-((5-(2-oxopyrrolidin-1-yl)pyridin-3-yl)amino)pyrimidin-4-yl)-1-(oxetan-3-yl)pyridin-2(1H)-one]	< 500
O=C1CCCN1c1cncc(Nc2ncc(Cl)c(N3CCC(C4CCCC4)C3)n2)c1 (stereo not drawn) [Compound 136, 1-(5-((5-chloro-4-(3-cyclopentylpyrrolidin-1-yl)pyrimidin-2-yl)amino)pyridin-3-yl)pyrrolidin-2-one]	< 500
O=C1CCCN1c1cncc(Nc2ncc(Cl)c(N3CCOC(c4ccccn4)C3)n2)c1 (stereo not drawn) [Compound 134, 1-[5-[[5-chloro-4-[2-(2-pyridyl)morpholin-4-yl]pyrimidin-2-yl]amino]-3-pyridyl]pyrrolidin-2-one]	< 500
O=C1CCCN1c1ccc(Nc2ncc(F)c(-c3cccc(C4CC4)c3)n2)cn1 [Compound 147, 1-(5-((4-(3-cyclopropylphenyl)-5-fluoropyrimidin-2-yl)amino)pyridin-2-yl)pyrrolidin-2-one]	< 500
O=C1CCCN1c1cncc(Nc2ncc(Cl)c(-c3cnn(-c4ccccc4)c3)n2)c1 [Compound 140, 1-(5-((5-chloro-4-(1-phenyl-1H-pyrazol-4-yl)pyrimidin-2-yl)amino)pyridin-3-yl)pyrrolidin-2-one]	< 500

Now from value to compound:

IC50 [nM]	SMILES
< 500	Cc1ccc(-c2cccc(-c3nc(Nc4cncc(N5CCCC5=O)c4)ncc3Cl)c2)cc1 [Compound 3, 1-(5-((5-chloro-4-(4′-methyl-[1,1′-biphenyl]-3-yl)pyrimidin-2-yl)amino)pyridin-3-yl)pyrrolidin-2-one]
< 500	O=C1CCCN1c1cncc(Nc2ncc(Cl)c(-c3cnn(C4CCC4)c3)n2)c1 [Compound 137, 1-(5-((5-chloro-4-(1-cyclobutyl-1H-pyrazol-4-yl)pyrimidin-2-yl)amino)pyridin-3-yl)pyrrolidin-2-one]
< 500	CN1CCC(c2cccc(-c3nc(Nc4cncc(N5CCCC5=O)c4)ncc3Cl)c2)CC1 [Compound 27, 1-(5-((5-chloro-4-(3-(1-methylpiperidin-4-yl)phenyl)pyrimidin-2-yl)amino)pyridin-3-yl)pyrrolidin-2-one]
< 500	CN1CCCC(c2cccc(-c3nc(Nc4cncc(N5CCCC5=O)c4)ncc3Cl)c2)C1 (stereo not drawn) [Compound 33, 1-(5-((5-chloro-4-(3-(1-methylpiperidin-3-yl)phenyl)pyrimidin-2-yl)amino)pyridin-3-yl)pyrrolidin-2-one]
< 500	Cc1ccc(-c2nc(Nc3cncc(N4CCCC4=O)c3)ncc2Cl)cc1 [Compound 94, 1-(5-((5-chloro-4-(p-tolyl)pyrimidin-2-yl)amino)pyridin-3-yl)pyrrolidin-2-one]
< 500	CC(=O)N1CCC(c2cccc(-c3nc(Nc4cncc(N5CCCC5=O)c4)ncc3Cl)c2)CC1 [Compound 28, 1-(5-((4-(3-(1-acetylpiperidin-4-yl)phenyl)-5-chloropyrimidin-2-yl)amino)pyridin-3-yl)pyrrolidin-2-one]
< 500	O=C1CCCN1c1cncc(Nc2ncc(Cl)c(-c3cccc(C4CCC4)c3)n2)c1 [Compound 39, 1-(5-((5-chloro-4-(3-cyclobutylphenyl)pyrimidin-2-yl)amino)pyridin-3-yl)pyrrolidin-2-one]
< 500	CC(C)c1cc(-c2nc(Nc3cncc(N4CCCC4=O)c3)ncc2Cl)ccn1 [Compound 111, 1-(5-((5-chloro-4-(2-isopropylpyridin-4-yl)pyrimidin-2-yl)amino)pyridin-3-yl)pyrrolidin-2-one]
500 to 1000	O=C1CCCN1c1ccnc(Nc2ncc(Cl)c(-c3cccc(C4CCCCC4)c3)n2)c1 [Compound 150, 1-(2-((5-chloro-4-(3-cyclohexylphenyl)pyrimidin-2-yl)amino)pyridin-4-yl)pyrrolidin-2-one]
